Assay results published in patent US20210346357A1 (priority 2020, published 2021).
Where two headings read alike, the source gives them in different places.

How the values were obtained:
[1] = tested on: TSLP-evoked TARC release in human peripheral blood mononuclear cells; assay: Inhibition of TSLP-evoked TARC release in human PBMC; format: cell-based; conditions: PBMC from 3 to 5 donors, TSLP 10 ng/mL, 48 hours, read-out: pIC50 ± st. dev., inhibition of TSLP-evoked TARC release (converted)
Abl1 = Abl1 (Homo sapiens, UniProt P00519); assay: Biochemical ABL1 kinase assay (33P-ATP); conditions: at 1 μM; ATP 10 μM
[2] = tested on: IL-13-induced STAT6 phosphorylation in the human bronchial epithelial cell line BEAS-2B; assay: IL-13-induced STAT6 phosphorylation in BEAS-2B cells; format: cell-based
[3] = Human plasma protein binding; format: in vitro ADME
[4] = tested on: Symptomatic Acute Lung Injury Associated with COVID-19; assay: Phase 2 study Part 1, inhaled compound 1 in hospitalized COVID-19 patients; conditions: COVID-19 patients; for Modified Borg Dyspnea Score, Baseline, Mean: baseline value
[5] = 1 mg, matched D1 and D7 samples

Sequence of Abl1 (P00519 whole entry): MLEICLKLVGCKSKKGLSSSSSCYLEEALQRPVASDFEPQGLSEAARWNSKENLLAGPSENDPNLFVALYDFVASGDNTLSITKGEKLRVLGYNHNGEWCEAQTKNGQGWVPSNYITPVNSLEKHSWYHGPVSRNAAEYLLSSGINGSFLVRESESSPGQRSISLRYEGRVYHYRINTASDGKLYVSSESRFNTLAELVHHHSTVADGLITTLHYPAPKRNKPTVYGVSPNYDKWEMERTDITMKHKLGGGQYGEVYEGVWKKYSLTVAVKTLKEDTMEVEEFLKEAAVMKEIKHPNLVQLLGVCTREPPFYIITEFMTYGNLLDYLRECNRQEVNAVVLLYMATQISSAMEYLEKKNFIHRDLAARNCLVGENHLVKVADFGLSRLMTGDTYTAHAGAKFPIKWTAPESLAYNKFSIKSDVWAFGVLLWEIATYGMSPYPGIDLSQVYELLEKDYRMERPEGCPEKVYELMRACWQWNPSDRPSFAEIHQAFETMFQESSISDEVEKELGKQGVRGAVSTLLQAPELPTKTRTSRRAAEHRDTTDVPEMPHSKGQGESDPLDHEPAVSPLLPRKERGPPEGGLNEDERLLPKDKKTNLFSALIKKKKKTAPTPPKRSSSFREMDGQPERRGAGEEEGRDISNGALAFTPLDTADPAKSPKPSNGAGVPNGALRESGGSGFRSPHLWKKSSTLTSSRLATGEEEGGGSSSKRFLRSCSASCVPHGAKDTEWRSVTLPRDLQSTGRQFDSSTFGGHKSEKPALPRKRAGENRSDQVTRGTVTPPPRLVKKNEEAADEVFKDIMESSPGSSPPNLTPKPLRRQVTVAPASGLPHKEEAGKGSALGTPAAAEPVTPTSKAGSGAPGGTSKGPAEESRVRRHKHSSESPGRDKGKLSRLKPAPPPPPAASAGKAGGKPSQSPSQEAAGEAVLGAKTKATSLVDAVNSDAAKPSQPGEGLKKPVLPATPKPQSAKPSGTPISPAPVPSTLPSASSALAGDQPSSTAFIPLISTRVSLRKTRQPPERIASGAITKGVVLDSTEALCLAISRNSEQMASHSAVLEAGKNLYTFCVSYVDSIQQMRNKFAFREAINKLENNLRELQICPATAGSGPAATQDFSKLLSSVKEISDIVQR

CCc1cc(O)ccc1-c1ccc2c(-c3nc4c([nH]3)CN(C(C)C)[C@H](C(=O)N3CC(N(C)C)C3)C4)n[nH]c2c1 [Compound 1, (S)-(3-(dimethylamino)azetidin-1-yl)(2-(6-(2-ethyl-4-hydroxyphenyl)-1H-indazol-3-yl)-5-isopropyl-4,5,6,7-tetrahydro-3H-imidazo[4,5-c]pyridin-6-yl)methanone]
IC50 [1]: 63.1 nM | inhibition at 1 µM (Abl1): 90% | IC50 ([2]; JAK IC50 divided by the fraction unbound, read-out: binding-corrected JAK IC50): 0.362 µg/mL | IC50 ([2]; obtained from pIC50 of 7.9, based on a MW of 545.7, read-out: JAK IC50): 0.0069 µg/mL | IC50 ([2]; read-out: pIC50 for IL-13-induced STAT6 phosphorylation (converted)): 12.6 nM | fraction unbound [3]: 0.019 | human plasma protein binding [3]: 98.1% | exposures provided by the loading dose on Day 1 [4]: consistent with pseudo steady-state | Clinical Status at Day 28: 1-Not hospitalized, no limitations on activities, number ([4]; 1 mg): 5 | Clinical Status at Day 28: 1-Not hospitalized, no limitations on activities, percent ([4]; 1 mg): 83.3% | Clinical Status at Day 28: 2-Not hospitalized, but with limitations on activities and/or requiring home oxygen, number ([4]; 1 mg): 0 | Clinical Status at Day 28: 3-Hospitalized, not requiring supplemental oxygen, and no longer requiring ongoing medical care, number ([4]; 1 mg): 0 | Clinical Status at Day 28: 4-Hospitalized, not requiring supplemental oxygen, but requiring ongoing medical care, number ([4]; 1 mg): 0 | Clinical Status at Day 28: 5-Hospitalized, requiring supplemental oxygen, number ([4]; 1 mg): 0 | Clinical Status at Day 28: 6-Hospitalized, on non-invasive ventilation or high-flow oxygen devices, number ([4]; 1 mg): 0 | Clinical Status at Day 28: 7-Hospitalized, on invasive mechanical ventilation or extracorporeal membrane oxygenation, number ([4]; 1 mg): 0 | Clinical Status at Day 28: 8-Death, number ([4]; 1 mg): 1 | Clinical Status at Day 28: 8-Death, percent ([4]; 1 mg): 16.7% | Still in Hospital at Day 28, number ([4]; 1 mg): 0 | Time to Hospital Discharge (Days) Median ([4]; 1 mg): 18.5 days | Modified Borg Dyspnea Score, Baseline, Mean ([4]; 1 mg group): 6.17 | Modified Borg Dyspnea Score Change from Baseline, Mean ([4]; 1 mg, Day 2): 0.33 | Modified Borg Dyspnea Score Change from Baseline, Mean ([4]; 1 mg, Day 3): −0.33 | Modified Borg Dyspnea Score Change from Baseline, Mean ([4]; 1 mg, Day 4): −0.83 | Modified Borg Dyspnea Score Change from Baseline, Mean ([4]; 1 mg, Day 5): −1.17 | Modified Borg Dyspnea Score Change from Baseline, Mean ([4]; 1 mg, Day 6): −1.33 | Hospital Discharge, number ([4]; 1 mg, Day 7): 0 | Modified Borg Dyspnea Score Change from Baseline, Mean ([4]; 1 mg, Day 7): −1.50 | Hospital Discharge, number ([4]; 1 mg, Day 14): 2 | Hospital Discharge, percent ([4]; 1 mg, Day 14): 33.3% | Hospital Discharge, number ([4]; 1 mg, Day 21): 3 | Hospital Discharge, percent ([4]; 1 mg, Day 21): 50.0% | # Subjects Respiratory Failure-Free, percent ([4]; 1 mg, Day 28): 83.3% | Hospital Discharge, number ([4]; 1 mg, Day 28): 5 | Hospital Discharge, percent ([4]; 1 mg, Day 28): 83.3% | Proportion of Subjects Alive and Respiratory Failure-free ([4]; 1 mg, Day 28): 83.3% | Proportion of Subjects Alive and Respiratory Failure-free, number ([4]; 1 mg, Day 28): 5 | # Subjects Respiratory Failure-Free ([4]; 1 mg, Day 28, number of subjects): 5 | IFN-γ, within-group percent difference in geometric mean from baseline [4, 5]: −46.12% | IL-6, within-group percent difference in geometric mean from baseline [4, 5]: 29.45% | IL-8, within-group percent difference in geometric mean from baseline [4, 5]: −16.78% | IL-10, within-group percent difference in geometric mean from baseline [4, 5]: −26.59% | IP-10, within-group percent difference in geometric mean from baseline [4, 5]: −20.65% | MCP-1, within-group percent difference in geometric mean from baseline [4, 5]: 13.90% | MDC, within-group percent difference in geometric mean from baseline [4, 5]: −55.03% | RAGE, within-group percent difference in geometric mean from baseline [4, 5]: −14.22% | TARC, within-group percent difference in geometric mean from baseline [4, 5]: −57.21% | hsCRP, within-group percent difference in geometric mean from baseline [4, 5]: −34.85% | Time to Hospital Discharge (Days) Mean ± SD ([4]; 1 mg, still hospitalized or died = 28 days): 18.83 ± 6.795 days | # Subjects Alive, percent ([4]; 1 mg, through Day 28): 83.3% | Died (All-Cause Mortality), percent ([4]; 1 mg, through Day 28): 16.7% | # Subjects Alive ([4]; 1 mg, through Day 28, number of subjects): 5 | Clinical Status at Day 28: 1-Not hospitalized, no limitations on activities, number ([4]; 3 mg): 5 | Clinical Status at Day 28: 1-Not hospitalized, no limitations on activities, percent ([4]; 3 mg): 83.3% | Clinical Status at Day 28: 2-Not hospitalized, but with limitations on activities and/or requiring home oxygen, number ([4]; 3 mg): 0 | Clinical Status at Day 28: 3-Hospitalized, not requiring supplemental oxygen, and no longer requiring ongoing medical care, number ([4]; 3 mg): 0 | Clinical Status at Day 28: 4-Hospitalized, not requiring supplemental oxygen, but requiring ongoing medical care, number ([4]; 3 mg): 1 | Clinical Status at Day 28: 4-Hospitalized, not requiring supplemental oxygen, but requiring ongoing medical care, percent ([4]; 3 mg): 16.7% | Clinical Status at Day 28: 5-Hospitalized, requiring supplemental oxygen, number ([4]; 3 mg): 0 | Clinical Status at Day 28: 6-Hospitalized, on non-invasive ventilation or high-flow oxygen devices, number ([4]; 3 mg): 0 | Clinical Status at Day 28: 7-Hospitalized, on invasive mechanical ventilation or extracorporeal membrane oxygenation, number ([4]; 3 mg): 0 | Clinical Status at Day 28: 8-Death, number ([4]; 3 mg): 0 | Still in Hospital at Day 28, number ([4]; 3 mg): 0 | Time to Hospital Discharge (Days) Median ([4]; 3 mg): 17.0 days | Modified Borg Dyspnea Score, Baseline, Mean ([4]; 3 mg group): 6.71 | Modified Borg Dyspnea Score Change from Baseline, Mean ([4]; 3 mg, Day 2): −0.43 | Modified Borg Dyspnea Score Change from Baseline, Mean ([4]; 3 mg, Day 3): −1.00 | Modified Borg Dyspnea Score Change from Baseline, Mean ([4]; 3 mg, Day 4): −0.50 | Modified Borg Dyspnea Score Change from Baseline, Mean ([4]; 3 mg, Day 5): −1.20 | Modified Borg Dyspnea Score Change from Baseline, Mean ([4]; 3 mg, Day 6): −1.20 | Hospital Discharge, number ([4]; 3 mg, Day 7): 1 | Hospital Discharge, percent ([4]; 3 mg, Day 7): 14.3% | Modified Borg Dyspnea Score Change from Baseline, Mean ([4]; 3 mg, Day 7): −1.80 | Hospital Discharge, number ([4]; 3 mg, Day 14): 2
